We go through 15 compounds from patent US12421228B2 (Mirati Therapeutics, Inc., priority 2019, dated 2025).

The subject of assay [1] is Karpas 422 cells (EZH2 Y641N). Nature of the assay: Karpas 422 cell viability (Cell Titre Glo). It is filed as cell-based. The following applies: Homo sapiens, CTG viability, Day 4, Day 7 or Day 11 (time point not given), read-out: IC50 (nM), Inhibiting Proliferation of Cells Expressing an Activating Mutant Form of EZH2. As for the experimental part: Karpas 422 cell line is a human B cell non-Hodgkin's lymphoma cell line established from a patient having DLBCL. This EZH2 heterozygotic cell line expresses a mutant form of EZH2 enzyme (Y641N) that increases histone H3 methylation and this mutation has been implicated in the tumorgenesis of lymphomas, such as DLBCL.
Karpas 422 cells (PHE cat no., 06101702) were cultured in RPMI medium supplemented with 20% fetal bovine serum and 1% penicillin/1% streptomycin and plated at a density of 1000 cells/90 μl/well in 96 well white assay plates. A dose response curve for compounds of the present invention was determined by adding a 10 μl aliquot of stock solutions of varying concentrations of compounds to the same medium in each well, over a concentration range of 10 μM using 3-fold dilutions to a final concentration of 1.5 nM. The plates were incubated at 37° C. for predetermined time periods, Day 4, Day 7, or Day 11, and the viability of the cells was measured using a CTG assay kit (Cell Titre Glo; Promega cat. no G7573) on Day 4 and Day 7 in accordance with the manufacturer's instructions.
For the viability assay for the Day 11 plates, the plates were subjected to centrifugation at 1100 rpm for five minutes on Day 7 and the supernatant was removed by aspiration. The cells were resuspended in 90 μl aliquot of the appropriate growth medium lacking the compound followed by addition of 10 μl of a 10× stock of the same compound at the same concentration. The viability of the Day 11 cells was measured using the CTG assay kit described above in accordance with the manufacturer's instructions. The IC50 values for each compound at each predetermined time point were calculated using Graph pad PRISM software and the results are shown in Table 8. A=≤250 nM; B=[…]−≤500 nM; C=>500 nM and N.D.=not determined.

The subject of assay [2] is PRC2-mediated histone H3 methylation in Pfeiffer cells (EZH2 A677G). Nature of the assay: Tri-Methyl Histone H3 (Lys 27) sandwich ELISA in Pfeiffer cells. The class given is cell-based. The following applies: Homo sapiens, 96 hours incubation, H3K27me3 ELISA, read-out: IC50 (nM), Inhibition of EZH2-mediated Histone H3 Trimethylation. An excerpt:
The Pfeiffer cell line was established from a […] from a patient having metastatic diffuse large B-cell lymphoma (DLBCL). This cell line expresses a mutant form of the EZH2 enzyme (A677G) that results in enhanced EZH2 activity leading to increased methylation of histone H3 Lys27. Increased trimethylation of histone H3 Lys27 is believed to be implicated in tumorgenesis and poor clinical prognosis in lymphomas (McCabe et al., (2012) Nature 492:108-112).
Inhibition of PRC2-mediated histone H3 methylation by compounds of Formula (I) was measured by ELISA using a Tri-Methyl Histone H3 (Lys 27) Sandwich ELISA Kit (Cell Signaling Tech #7866C) in accordance with the manufacturer's instructions. Briefly, Pfeiffer cells were cultured in RPMI medium supplemented with 10% fetal bovine serum and 1% penicillin and 1% streptomycin in 96 well culture plates at 37° C. to a density of 8000 cells/90 μl/well and the cells were harvested. A series of 3-fold serial dilutions of each test compound of Formula (I) were prepared in RPMI medium and added to the cells at final concentrations ranging from […] to 0.15 nM. The plates were incubated at 37° C. for 96 hours.
After incubation, the cells were pelleted by centrifugation in a pre-cooled 4° C. rotor at 1,100 rpm for 10 min and the supernatant was removed by aspiration. The cell pellet was resuspended in 55 μl of Lysis Buffer (0.4M HCl) and incubated on ice with periodic shaking for 30 minutes. The lysed cells were subjected to centrifugation at 4,200 rpm for 10 min at 4° C. and the supernatant containing acid-soluble proteins was collected and the remainder discarded. The acid-soluble proteins were brought to a neutral pH by the addition of 20 μl of Neutralization Buffer (1 M Sodium phosphate, dibasic (pH 12.5), 2.5 mM DTT and 1 mM PMSF) and the neutralized lysates were analyzed by ELISA.
A 65 μl aliquot of each cell lysate was added to a well of a microwell strip, the microwells were sealed using tape and incubated either at 37° C. for two hours or at 4° C. overnight. After incubation, the tape was removed at the microwells were washed four times using 200 μl of 1× Wash Buffer. To each washed microwell, a 100 μl aliquot of an anti-trimethyl histone H3 Lys27 Detection Antibody solution was added and the microwells were incubated at 37° C. for one hour. The Detection Antibody solution was removed by aspiration and the wells were washed four times each using 200 μl of 1× Wash Buffer.
A 100 μl aliquot of an HRP-linked secondary antibody was added to each well, the wells were sealed with tape and incubated at 37° C. for 30 min. The HRP-linked secondary antibody solution was removed by aspiration and the wells were washed four times using 200 μl of 1× Wash Buffer. A 100 μl aliquot of a TMB substrate was added to each well, the wells were sealed with tape and incubated at 37° C. for 10 min or 25° C. for 30 min. The reaction was stopped by the addition of 100 μl aliquot of a STOP solution and the plate was shaken briefly. The degree of histone H3 trimethylation was determined using a spectrophotometric readout by measuring the absorbance at 450 nm and then calculating the amount of trimethylated histone H3. A=≤100 nM; B=>100 nM−≤500 nM; C=>500 nM and N.D.=not determined.
For orientation: ELISA stands for enzyme-linked immunosorbent assay.

In assay [3] the target is purified human, His-tagged PRC2 complex (Homo sapiens (Human), UniProt O75530). Nature of the assay: Hot Spot HMT assay, inhibition of PRC2 enzymatic activity. It is filed as biochemical. The following applies: 10 nM PRC2 complex, 0.05 mg/ml core histone H3, 1 μM 3H-SAM, 1 hr at 30° C.; read-out: IC50, Inhibition of PRC2-mediated Enzymatic Activity. As for the experimental part:
Ten-point dose-response curves for compounds of the present invention were determined using a Hot Spot HMT assay (Reaction Biology Corp; see Horiuchi et al., Assay Drug Dev Technol. (2013) 4: 227-236 doi: 10.1089/adt.2012.480). The assay uses purified human, His-tagged PRC2 complex, including N-terminal His-tagged EZH2 enzyme, N-terminal Flag-tagged embryonic ectoderm development protein (EED), N-terminal His-tagged suppressor of zeste 12 (SUZ12), N-terminal His-tagged AEBP2, and N-terminal His-tagged RbAp48. In this assay, the transfer of the tritiated methyl group from radiolabeled S-adenosyl methionine (SAM) to purified core histone protein by EZH2 is quantitated after filtration to determine the activity of the core PRC2 complex in the presence and absence of compound.
Briefly, compounds of the present invention were solubilized in DMSO and a series of 10, three-fold serial dilutions were made for each compound in 15% DMSO. The initial starting concentration for the serial dilutions of each compound was 1.0 μM. Control samples lacking compound, EZH2 enzyme or various reaction components also were prepared and processed in parallel with compound test samples. SAH (S-(5-adenosyl)-L-homocysteine) was used as a positive control for assay validation.
An aliquot of each serial dilution of test compound was added to deep 384 well plate using Acoustic Technology instrument (Echo 550, LabCyte) containing reaction buffer (50 mM Tris-HCl (pH 8)), 0.01% Brij35, 1 mM EDTA, 1 mM DTT, 1 mM PMSF and 1% DMSO), 10 nM purified PRC2 complex and 0.05 mg/ml core histone H3 in a 5 μl volume. The reaction was mixed gently and then pre-incubated for 20 min at 30° C. The enzymatic reaction was initiated by adding 1 μM S-Adenosyl-L-[methyl-^3H]methionine and incubated for 1 hr at 30° C. After 1 hr, the reaction product was detected using a filter binding method and the amount of tritiated H3 core histone was quantitated using a scintillation counter. The IC50 value for each compound was determined from each 10-point dose-response curve using GraphPad Prism software and the results for compounds of present invention, including compounds of Formula (I) and Formula (II) are shown in Table 6. Key: A=<100 nM; B=>100 nM−<250 nM; and C=>250 nM.

purified human, His-tagged PRC2 complex, sequence (Q15910 whole entry): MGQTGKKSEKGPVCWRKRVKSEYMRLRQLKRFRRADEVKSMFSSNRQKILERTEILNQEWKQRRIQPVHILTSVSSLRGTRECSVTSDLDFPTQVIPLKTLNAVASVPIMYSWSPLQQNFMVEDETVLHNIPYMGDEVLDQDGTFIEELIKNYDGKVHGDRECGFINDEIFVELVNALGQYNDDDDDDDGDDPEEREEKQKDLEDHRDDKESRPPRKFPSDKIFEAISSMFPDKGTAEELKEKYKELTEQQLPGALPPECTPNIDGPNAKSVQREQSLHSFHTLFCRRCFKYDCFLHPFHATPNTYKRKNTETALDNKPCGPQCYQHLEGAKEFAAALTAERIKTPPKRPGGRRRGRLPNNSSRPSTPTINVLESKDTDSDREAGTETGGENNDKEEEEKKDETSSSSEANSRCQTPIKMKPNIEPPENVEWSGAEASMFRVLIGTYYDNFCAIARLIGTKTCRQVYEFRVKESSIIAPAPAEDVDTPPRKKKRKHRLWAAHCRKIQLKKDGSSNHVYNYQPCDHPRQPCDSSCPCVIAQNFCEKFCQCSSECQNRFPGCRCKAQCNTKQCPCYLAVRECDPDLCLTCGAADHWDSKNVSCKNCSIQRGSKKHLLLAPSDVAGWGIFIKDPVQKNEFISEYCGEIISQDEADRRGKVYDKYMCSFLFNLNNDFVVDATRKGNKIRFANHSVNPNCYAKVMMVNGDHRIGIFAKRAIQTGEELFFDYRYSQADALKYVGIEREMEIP
purified human, His-tagged PRC2 complex, sequence (O75530 whole entry): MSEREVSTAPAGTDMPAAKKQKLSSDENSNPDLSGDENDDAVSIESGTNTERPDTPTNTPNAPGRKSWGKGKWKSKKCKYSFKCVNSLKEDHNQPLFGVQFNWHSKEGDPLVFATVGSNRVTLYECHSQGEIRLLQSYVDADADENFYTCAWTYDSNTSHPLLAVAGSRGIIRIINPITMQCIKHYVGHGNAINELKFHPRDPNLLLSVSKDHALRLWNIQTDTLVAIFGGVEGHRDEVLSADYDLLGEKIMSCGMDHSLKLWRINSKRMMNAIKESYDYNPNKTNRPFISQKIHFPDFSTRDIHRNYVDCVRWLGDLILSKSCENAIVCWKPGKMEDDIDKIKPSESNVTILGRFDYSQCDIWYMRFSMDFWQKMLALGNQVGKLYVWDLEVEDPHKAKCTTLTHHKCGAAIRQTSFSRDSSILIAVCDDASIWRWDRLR
purified human, His-tagged PRC2 complex, sequence (Q15022 whole entry partner): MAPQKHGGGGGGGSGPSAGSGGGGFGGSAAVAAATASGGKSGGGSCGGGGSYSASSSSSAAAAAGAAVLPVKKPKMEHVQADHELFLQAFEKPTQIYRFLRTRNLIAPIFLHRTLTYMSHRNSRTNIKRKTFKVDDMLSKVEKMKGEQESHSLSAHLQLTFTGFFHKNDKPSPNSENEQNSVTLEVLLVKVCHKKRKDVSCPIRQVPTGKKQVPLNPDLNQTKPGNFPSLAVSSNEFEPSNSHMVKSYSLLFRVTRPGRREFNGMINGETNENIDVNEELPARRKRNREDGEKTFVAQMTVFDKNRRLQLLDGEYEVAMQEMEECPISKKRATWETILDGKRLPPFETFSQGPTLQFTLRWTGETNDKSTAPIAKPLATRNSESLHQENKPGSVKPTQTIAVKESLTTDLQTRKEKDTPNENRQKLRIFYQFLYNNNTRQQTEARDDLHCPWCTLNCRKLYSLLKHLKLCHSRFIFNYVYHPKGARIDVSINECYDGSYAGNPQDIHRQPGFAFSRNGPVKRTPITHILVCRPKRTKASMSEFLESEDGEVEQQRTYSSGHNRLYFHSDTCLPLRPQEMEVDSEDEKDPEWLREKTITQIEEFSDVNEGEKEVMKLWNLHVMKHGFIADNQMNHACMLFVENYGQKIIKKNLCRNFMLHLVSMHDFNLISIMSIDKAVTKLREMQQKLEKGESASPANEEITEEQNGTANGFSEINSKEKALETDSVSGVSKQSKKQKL
purified human, His-tagged PRC2 complex, sequence (Q6ZN18 whole entry partner): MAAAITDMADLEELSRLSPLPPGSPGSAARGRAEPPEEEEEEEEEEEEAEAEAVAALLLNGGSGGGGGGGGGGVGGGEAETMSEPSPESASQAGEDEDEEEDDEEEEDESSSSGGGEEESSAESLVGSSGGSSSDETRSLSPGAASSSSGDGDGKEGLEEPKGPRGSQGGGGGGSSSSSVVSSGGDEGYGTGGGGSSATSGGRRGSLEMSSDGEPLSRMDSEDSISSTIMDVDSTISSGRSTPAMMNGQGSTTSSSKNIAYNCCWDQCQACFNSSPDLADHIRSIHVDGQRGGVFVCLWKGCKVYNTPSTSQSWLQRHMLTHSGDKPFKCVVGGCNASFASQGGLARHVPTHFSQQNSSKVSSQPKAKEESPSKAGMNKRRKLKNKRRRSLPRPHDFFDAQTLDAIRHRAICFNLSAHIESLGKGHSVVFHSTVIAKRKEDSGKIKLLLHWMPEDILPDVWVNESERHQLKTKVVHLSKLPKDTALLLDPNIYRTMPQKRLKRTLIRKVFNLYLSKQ
purified human, His-tagged PRC2 complex, sequence (Q09028 whole entry partner): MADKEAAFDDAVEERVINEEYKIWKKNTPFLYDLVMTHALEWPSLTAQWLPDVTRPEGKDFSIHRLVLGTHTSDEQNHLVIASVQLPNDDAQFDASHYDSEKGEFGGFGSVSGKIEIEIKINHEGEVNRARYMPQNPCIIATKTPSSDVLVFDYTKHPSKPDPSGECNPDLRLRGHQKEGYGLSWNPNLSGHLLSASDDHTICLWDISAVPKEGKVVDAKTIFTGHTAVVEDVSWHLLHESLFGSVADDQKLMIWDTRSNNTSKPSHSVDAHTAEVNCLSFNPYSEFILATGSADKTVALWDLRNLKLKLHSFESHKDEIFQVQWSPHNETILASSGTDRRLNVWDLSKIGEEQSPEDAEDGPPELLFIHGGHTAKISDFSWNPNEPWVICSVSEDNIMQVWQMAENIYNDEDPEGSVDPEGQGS

As to `CNCc1ccc(-c2cnc(NCc3c(F)ccc4c3CCO4)c3cnncc23)c(C)c1` [Example 19, N-((5-fluoro-2,3-dihydrobenzofuran-4-yl)methyl)-8-(2-methyl-4-((methylamino)methyl)phenyl)pyrido[3,4-d]pyridazin-5-amine], the IC50 was not above 250 nM in assay [1], not above 100 nM in assay [2] and less than 100 nM in assay [3].
Take `Cc1cc(S(C)(=O)=O)ccc1-c1cnc(NCc2c(F)ccc3c2CCO3)c2c[nH]c(=O)cc12` [Example 40]: the figures for the IC50 in assay [1], in assay [2] and in assay [3] were not above 250 nM, 100 to 500 nM and 100 to 250 nM, respectively.
In the case of `Cc1cc(-c2cnc(NCc3c(F)ccc4c3CCO4)c3cc[nH]c(=O)c23)n(C)n1` [Example 55, 8-(1,3-dimethyl-1H-pyrazol-5-yl)-5-(((5-fluoro-2,3-dihydrobenzofuran-4-yl)methyl)amino)-2,6-naphthyridin-1(2H)-one], the figures for the IC50 in assay [1], in assay [2] and in assay [3] were not above 250 nM, more than 500 nM and more than 250 nM, respectively.
Regarding `Cc1cc(-c2cnc(NCc3c(F)ccc4c3CCO4)c3cnc(OCCN(C)C)cc23)n(C)n1` [Example 44], the IC50 in assay [1] was not above 250 nM; in assay [2], 100 to 500 nM; in assay [3], more than 250 nM.
The like results for `COc1ncnc2c(NCc3c(F)ccc4c3CCO4)ncc(-c3cc(C)nn3C)c12` [Example 57, 5-(1,3-dimethyl-1H-pyrazol-5-yl)-N-((5-fluoro-2,3-dihydrobenzofuran-4-yl)methyl)-4-methoxypyrido[3,4-d]pyrimidin-8-amine] were, in that order, more than 500 nM, more than 500 nM and more than 250 nM.
In the case of `Cc1cc(-c2cnc(NCc3c(F)ccc4c3CCO4)c3ccncc23)n(C)n1` [Example 56, 4-(1,3-dimethyl-1H-pyrazol-5-yl)-N-((5-fluoro-2,3-dihydrobenzofuran-4-yl)methyl)-2,6-naphthyridin-1-amine], the IC50 in assay [1] is more than 500 nM; in assay [2], 100 to 500 nM; in assay [3], more than 250 nM.
For the compound `CN1CCc2cc(-c3cnc(NCc4c(F)ccc5c4CCO5)c4cnncc34)ccc2C1` [Example 17, N-((5-fluoro-2,3-dihydrobenzofuran-4-yl)methyl)-8-(2-methyl-1,2,3,4-tetrahydroisoquinolin-6-yl)pyrido[3,4-d]pyridazin-5-amine], the IC50 was not above 250 nM in assay [1], not above 100 nM in assay [2] and less than 100 nM in assay [3].
Turning to `CN(C)CCn1nccc1-c1cnc(NCc2c(F)ccc3c2CCO3)c2cnncc12` [Example 18, 8-(1-(2-(dimethylamino)ethyl)-1H-pyrazol-5-yl)-N-((5-fluoro-2,3-dihydrobenzofuran-4-yl)methyl)pyrido[3,4-d]pyridazin-5-amine], the figures for the IC50 in assay [1], in assay [2] and in assay [3] were not above 250 nM, 100 to 500 nM and more than 250 nM, respectively.
In the case of `Cc1cc(CN(C)C)ccc1-c1cnc(NCc2c(F)ccc3c2CCO3)c2cnccc12` [Example 30], the IC50 is more than 500 nM in assay [1], more than 500 nM in assay [2] and more than 250 nM in assay [3].
For the compound `Cn1nc(C#N)cc1-c1cnc(NCc2c(F)ccc3c2CCO3)c2cnncc12` [Example 16, 5-(5-(((5-fluoro-2,3-dihydrobenzofuran-4-yl)methyl)amino)pyrido[3,4-d]pyridazin-8-yl)-1-methyl-1H-pyrazole-3-carbonitrile], the IC50 in assay [1] was not above 250 nM; in assay [2], not above 100 nM; in assay [3] it was less than 100 nM.
Consider `Cc1cc(C(=O)N(C)C)ncc1-c1cnc(NCc2c(F)ccc3c2CCO3)c2cnncc12` [Example 4], for which the IC50 is not above 250 nM in assay [1], not above 100 nM in assay [2] and 100 to 250 nM in assay [3].
The like results for `COc1ccc2c(NCc3c(F)ccc4c3CCO4)ncc(-c3cc(C)nn3C)c2n1` [Example 52, 8-(1,3-dimethyl-1H-pyrazol-5-yl)-N-((5-fluoro-2,3-dihydrobenzofuran-4-yl)methyl)-2-methoxy-1,6-naphthyridin-5-amine] were, in that order, more than 500 nM, more than 500 nM and more than 250 nM.
`CN(C)C(=O)c1ccc(-c2cnc(NCc3c(F)ccc4c3CCO4)c3cnncc23)cc1` [Example 9]: the IC50 is not above 250 nM in assay [1], not above 100 nM in assay [2] and 100 to 250 nM in assay [3].
The like results for `Cc1cc(CN(C)C)ccc1-c1cnc(NCc2c(F)ccc3c2CCO3)c2c[nH]c(=O)cc12` [Example 41] were, in that order, 250 to 500 nM, 100 to 500 nM and 100 to 250 nM.
On to `CCOc1cc2c(-c3cc(C)nn3C)cnc(NCc3c(F)ccc4c3CCO4)c2cn1` [Example 42, 4-(1,3-dimethyl-1H-pyrazol-5-yl)-6-ethoxy-N-((5-fluoro-2,3-dihydrobenzofuran-4-yl)methyl)-2,7-naphthyridin-1-amine], for which, in assay [3], the IC50 is 100 to 250 nM.
